Test results from patent US20200399329A1, “ANTIMICROBIAL PEPTIDES” (priority 2015, published 2020).
Converted amounts (≈) assume the structure as drawn. Where a SMILES comes first, the peptide text is derived from it.

Legend:
Assay type in all cases: cell-based, Escherichia coli
E. coli CR BAA-2452 = details: OMN6 12.5 μM, FIG. 6D
Description: (§1) In order to determine the MIC values of the peptides, growth and inhibition of various bacteria were monitored after treatment with the peptides of the invention (Table 6).
(§2) E. coli bacteria were cultured with or without OMN6 in increasing concentrations of 0.8-200 μM and with or without Fetal Bovine Serum 10% for 17-20 hours. The growth of the bacteria was continuously monitored via spectrophotometry at 600 nm. As bacterial growth progresses, OD600 nm values rise, and where the growth is inhibited OD600 nm values remain constant.
E. coli NDM1 is a Carbapenem resistant strain of bacteria. The experimental system described above was used to determine the antimicrobial effect of OMN6 on this bacteria compared to the antibiotic drug Imipenem (IPM), a member of the Carbapenem family of antibiotics. The MIC value for IPM on sensitive E. coli is 4 μg/ml, in a MIC above 8 μg/ml the bacteria is considered resistant.
(§3) The experimental system and parameters described here were used to determine the MIC values of OMN2, OMN6, OMN7 and OMN11 on various bacteria strains (Table 7 and Table 8).

E. coli ESBL BAA-198 [1] = tested on: E. coli ESBL BAA-198
Description: In order to determine the Minimal Bactericidal Concentration (MBC) values of the peptides, colony formation of various bacteria strains was monitored and determined after treatment with the peptides of the invention. Multi-Drug Resistant A. baumannii bacteria were cultured with or without OMN6 in increasing concentrations, as is detailed in FIG. 6 and Example 6. Immediately afterwards, samples of each experimental group were diluted to 1×10^4 to 1×10^6 as necessary, and further, the samples were plated on appropriate medium-agar plates. All the plates were incubated at 37° C. for 24-48 hours. Colonies were counted and CFU/ml in the original sample, prior to plating, were calculated and determined. An example of the plates, after incubation, is presented in FIG. 7 where the plate on the left side of the image is the CTRL sample treated with DDW and in the right side of the image increasing concentrations of OMN6 are presented, as specified therein.
The experimental system and parameters described here were used to determine the MBC values of OMN2, OMN6, OMN7 and OMN11 on various bacteria strains with and without the supplementation of 10% FBS (Table 6 and Table 8).

E. coli Sens. 25922 = tested on: E. coli Sens. 25922
Description: as §1, §2, §3

E. coli ESBL BAA-198 [2] = tested on: E. coli ESBL BAA-198; remark: listed apart in the source
Description: as §1, §2, §3

SMILES: CC[C@H](C)[C@H](NC(=O)CNC(=O)[C@H](CC(=O)O)NC(=O)[C@H](CCCNC(=N)N)NC(=O)[C@@H](NC(=O)[C@H](CC(N)=O)NC(=O)[C@H](CCC(N)=O)NC(=O)CNC(=O)[C@@H](NC(=O)[C@H](CCCCN)NC(=O)[C@H](CCC(=O)O)NC(=O)[C@@H](NC(=O)[C@H](CCCCN)NC(=O)[C@H](CCCCN)NC(=O)[C@H](Cc1ccccc1)NC(=O)[C@H](CC(C)C)NC(=O)[C@H](CCCCN)NC(=O)[C@H](Cc1c[nH]c2ccccc12)NC(=O)[C@H](CCCCN)NC(=O)[C@H](CS)NC(=O)[C@@H](N)CCSC)[C@@H](C)CC)C(C)C)[C@@H](C)CC)C(=O)N[C@H](C(=O)N[C@@H](CCCCN)C(=O)N[C@@H](C)C(=O)NCC(=O)N1CCC[C@H]1C(=O)N[C@@H](C)C(=O)N[C@H](C(=O)N[C@@H](C)C(=O)N[C@H](C(=O)N[C@H](C(=O)NCC(=O)N[C@@H](CCC(N)=O)C(=O)N[C@@H](C)C(=O)N[C@H](C(=O)N[C@@H](CCC(N)=O)C(=O)N[C@H](C(=O)N[C@@H](C)C(=O)N[C@@H](CCCCN)C(=O)N[C@@H](CS)C(N)=O)[C@@H](C)CC)[C@@H](C)O)C(C)C)C(C)C)C(C)C)[C@@H](C)CC [OMN6] (H-MCKWKLFKKIEKVGQNIRDGIIKAGPAVAVVGQATQIAKC-NH2; N-terminus and C-terminus assumed)
- Inhibition of growth of E. coli NDM1 (E. coli CR BAA-2452): completely inhibited bacterial growth
- MBC (E. coli ESBL BAA-198 [1]): 5 µM (≈ 21.7 µg/mL)
- MIC value (E. coli Sens. 25922; Sens. 25922): 6.25 µM (≈ 27.1 µg/mL)
- Minimal Inhibitory Conc. (MIC) (E. coli Sens. 25922; Sens. 25922, 17 h): 12.5 µM
- MIC (E. coli ESBL BAA-198 [2]): 5 µM (≈ 21.7 µg/mL)
